Test [1] has as its target fumarate reductase (FrdABCD), FrdB subunit (Escherichia coli, UniProt P0A8Q0+P0A8Q3+P0AC47, P0AC47:K229E). As to the kind of experiment: biochemical.
The target of test [2] is fumarate reductase (FrdABCD), FrdB subunit (Escherichia coli, UniProt P0A8Q0+P0A8Q3+P0AC47, P0AC47:K229L). The experiment in a line: biochemical.
Test [3] concerns the target fumarate reductase (FrdABCD), FrdB subunit (Escherichia coli, UniProt P0A8Q0+P0A8Q3+P0AC47, P0AC47:K229R). The experiment in a line: biochemical.
In test [4] the target is fumarate reductase (FrdABCD), FrdB subunit (Escherichia coli, UniProt P0A8Q0+P0A8Q3+P0AC47). As to the kind of experiment: fluorescence quench titration in enriched membranes. In kind it is binding.
Test [5] concerns the target fumarate reductase (FrdABCD), FrdB subunit (Escherichia coli, UniProt P0A8Q0+P0A8Q3+P0AC47, P0AC47:S204R). As to the kind of experiment: biochemical.

This passage reports Kd results from publication PMC4354731 (Biochimica et biophysica acta, 2013).

For `CCCCCCCc1cc(O)c2ccccc2[n+]1[O-]` [HOQNO, 2-n-heptyl-4-hyroxyquinoline-N-oxide], the Kd in test [1] was determined as 110 nM; in test [2] it was 110 nM; in test [3], 80 nM; in test [4], 5 nM; in test [5], 5 nM.

A word on the Kd: it is the concentration at which binding is half-saturated. A higher Kd goes with weaker binding.
